Patent US8003602B2 (priority 2006, dated 2011)
In brackets after ≈: the same amount, converted by molar mass. Structures can show the parent of a compound that is named as a salt.

Tests used:
[1] = system: E. faecium (R-2); format: cell-based, Enterococcus faecium; conditions: E. faecium R-2 (VRE)
From the text: (§1) The in-vitro potency was established by minimum inhibitory concentration (MIC) determinations of the compound PM181104 against bacterial strains, by using the Macro-broth dilution method as per National Committee for Clinical Laboratory Standards (2000) guidelines [Journal of Anti-microbial Chemotherapy, 2002, 50, 125-128 (Cross Reference 8: Methods for Dilution Antimicrobial Susceptibility Tests for Bacteria that Grow Aerobically-Fifth Edition: Approved Standard M7-A5. NCCLS, Wayne, Pa., USA)]. Unless stated otherwise, Mueller-Hinton broth was used as nutrient medium for the assay. Linezolid (manufactured by Glenmark Pharma Ltd; Batch no: K2005028) was used as known standard in all in-vitro experiments. For preparation of the stock solution the compound PM181104 was dissolved in chloroform (5% of the total required volume) and diluted using methanol (95% of the total required volume).

[2] = system: methicillin resistant Staphylococcus aureus E710 (MRSA); assay: Systemic infection model (septicemia); format: in vivo, Balb/C mice; conditions: mice infected intraperitoneally with MRSA E710, administered intravenously immediately after infection
From the text: (§2) The in-vivo potency was established by protection dose (PD) determinations of the compound PM181104 for its antibiotic activity in three animal models using either male or female Balb/C mice.
(§3) The models used were the general purpose efficacy testing models and organ/tissue specific efficacy testing models. The general purpose efficacy testing models used were systemic infection model (septicemia), and localized infection model (neutropenic thigh model). The Organ/Tissue specific infection models used for efficacy testing were kidney, lung infection, and skin abscess model.
The animals were infected intraperitoneally with ˜10^8 to 10^9 cfu of an overnight grown culture of methicillin resistant Staphylococcus aureus E710 (MRSA), suspended in normal saline (0.85% sodium chloride). PM181104 solution was prepared in cremophor-ethanol formulation as described in example 14. The solution was administered intravenously at 5 mg, 2.5 mg and 1.25 mg/kg doses, immediately after infection. Each experimental group consisted of ten animals.

[3] = system: S. aureus E-710; assay: Neutropenic thigh model; format: in vivo, Balb/C mice; conditions: Linezolid at 25 mg/kg dose
From the text: as §2, §3
Each experimental group consisted of six animals. PM181104 was prepared in cremophor-ethanol formulation as described in example 14.

[4] = system: Enterococcus faecium ATCC 47077; assay: Kidney infection model; format: in vivo, Balb/C mice
From the text: as §2, §3
0.2 ml of 2% λ Carrageenan was administered intravenously to Balb/C mice 7 days prior to infection. Overnight grown log phase culture of Enterococcus faecium ATCC 47077 adjusted to approximately 10^9 cfu/ml, was injected intravenously to the mice at a volume of 0.2 ml. PM181104 solution, prepared in cremophor-ethanol formulation as described in example 14, was administered intravenously to the mice at 4 hours, 24 hours and 48 hours post-infection. At 72 hours post infection, the animals were sacrificed and kidneys were harvested to determine the bacterial load. […] Linezolid (manufactured by Glenmark Pharma Ltd; Batch no: K2005028) at 25 mg/kg and Vancomycin hydrochloride (manufactured by HiMedia; Catalogue no: RM217-500 mg; Lot no: 06-0350) at 150 mg/kg dose.

[5] = system: S. aureus E-710; assay: Lung infection model; format: in vivo, Balb/C mice
From the text: as §2, §3
Balb/C mice were rendered neutropenic by intraperitoneally administering 200 mg/kg cyclophosphamide four days and two days prior to infection. On the day of infection, the mice were anesthetized and infected with S. aureus E-710 log-phase culture suspension having bacterial density of approximately 10^6 to 10^7 cfu/ml. 24 and 36 hours post infection the first and second respective dose of drug was administered intravenously. 48 hours post infection, the animals were humanely euthanized and their lungs were aseptically collected to determine the viable count of bacteria. In this model, PM181104 was tested at 5 mg/kg dose prepared in cremophor-ethanol formulation as described in example 14. Two standard antibiotics viz. Linezolid (80 mg/kg single dose at 24 hours post infection) and Vancomycin (110 mg/kg, two doses at 24 and 48 hours post infection) were used as positive controls.

[6] = system: methicillin resistant S. aureus E710 (MRSA); format: in vivo, Balb/C mice; conditions: Linezolid at 50 mg/kg dose
From the text: as §2, §3
Balb/C mice were infected subcutaneously with approximately 10^8 cfu of an overnight grown culture of methicillin resistant S. aureus E710 (MRSA). The bacteria were suspended in 1:1 mixture of 2% cytodex beads in normal saline (0.85% sodium chloride). PM181104 was prepared in cremophor-ethanol formulation as described in example 14. The solution was administered intravenously at 2.5 mg, 5 mg and 10 mg/kg doses, two hours post infection. Each experimental group consisted of six animals. Following abscess formation the animals were sacrificed and abscess harvested to determine the viable counts. […] Linezolid (manufactured by Glenmark Pharma Ltd; Batch no: K2005028) at 50 mg/kg dose.

[7] = system: S. aureus (E710); assay: MIC, Macro-broth dilution method; format: cell-based, Staphylococcus aureus; conditions: S. aureus MRSA E710
From the text: as §1

[8] = system: E. faecalis ATCC 51575; format: cell-based
From the text: as §1

[9] = system: E. faecalis, ATCC 51299; format: cell-based
From the text: as §1

[10] = system: Staphylococcus aureus subsp. aureus ATCC 33591; format: cell-based; conditions: S. aureus MRSA ATCC 33591
From the text: as §1

[11] = system: E. faecalis ATCC BAA 472; assay: MIC, Macro-broth dilution method; format: cell-based
From the text: as §1

[12] = system: E. faecium ATCC 51559; format: cell-based, Enterococcus faecium
From the text: as §1

SMILES: C=C(NC(=O)C(=C)NC(=O)C1CCCN1C(=O)c1nc(-c2ccc(-c3nc(C(=O)NC(=C)C(=O)NC(C)C(N)=O)cs3)c(-c3csc(C4Cc5nc(cs5)C(=O)NC(Cc5ccccc5)C5=NC(CS5)C(=O)NC(Cc5ccc(OC(=O)CCC)cc5)C(=O)N5CCCC5c5nc(cs5)C(=O)N4)n3)n2)oc1C)C(N)=O (stereo not shown) [Butyric Acid Ester Derivative of PM181104]
- MIC [1]: 2.5 µg/mL (≈ 1.58 µM)

SMILES: CC(=O)NC[C@H]1CN(c2ccc(N3CCOCC3)c(F)c2)C(=O)O1 [Linezolid, reference compound]
- PD100 [2]: 25 mg/kg
- decrease in viable counts in thigh tissue, comparison with PM181104 [3]: comparable
- decrease in bacterial count in kidneys, comparison with PM181104 ([4]; Linezolid at 25 mg/kg): comparable
- activity profile in lung infection, comparison with PM181104 ([5]; Linezolid 80 mg/kg single dose at 24 hours post infection): comparable
- decrease in bacterial count in abscess, comparison with PM181104 [6]: comparable

SMILES: C=C(NC(=O)C(=C)NC(=O)C1CCCN1C(=O)c1nc(-c2ccc(-c3nc(C(=O)NC(=C)C(=O)NC(C)C(N)=O)cs3)c(-c3csc(C4Cc5nc(cs5)C(=O)NC(Cc5ccccc5)C5=NC(CS5)C(=O)NC(Cc5ccc(OC(=O)c6cccnc6)cc5)C(=O)N5CCCC5c5nc(cs5)C(=O)N4)n3)n2)oc1C)C(N)=O (stereo not shown) [Nicotinic Acid Ester Derivative of PM181104]
- MIC [7]: >10 µg/mL
- MIC [8]: 0.312 µg/mL (≈ 0.192 µM)
- MIC [9]: 0.312 µg/mL (≈ 0.192 µM)
- MIC [10]: >10 µg/mL
- MIC [11]: 0.312 µg/mL (≈ 0.192 µM)
- MIC [1]: 0.312 µg/mL (≈ 0.192 µM)
- MIC [12]: 0.156 µg/mL (≈ 0.0962 µM)

SMILES: C=C(NC(=O)C(=C)NC(=O)C1CCCN1C(=O)c1nc(-c2ccc(-c3nc(C(=O)NC(=C)C(=O)NC(C)C(N)=O)cs3)c(-c3csc(C4Cc5nc(cs5)C(=O)NC(Cc5ccccc5)C5=NC(CS5)C(=O)NC(Cc5ccc(OC(=O)CCCCCCCCCCCCCCCCC)cc5)C(=O)N5CCCC5c5nc(cs5)C(=O)N4)n3)n2)oc1C)C(N)=O (stereo not shown) [Stearic Acid Ester Derivative of PM181104]
- MIC [1]: 1.25 µg/mL (≈ 0.701 µM)

SMILES: CN[C@H](CC(C)C)C(=O)N[C@H]1C(=O)N[C@@H](CC(N)=O)C(=O)N[C@H]2C(=O)N[C@H]3C(=O)N[C@H](C(=O)N[C@H](C(=O)O)c4cc(O)cc(O)c4-c4cc3ccc4O)[C@H](O)c3ccc(c(Cl)c3)Oc3cc2cc(c3O[C@@H]2O[C@H](CO)[C@@H](O)[C@H](O)[C@H]2O[C@H]2C[C@](C)(N)[C@H](O)[C@H](C)O2)Oc2ccc(cc2Cl)[C@H]1O [Vancomycin hydrochloride, reference compound]
- decrease in bacterial count in kidneys, comparison with PM181104 ([4]; Vancomycin hydrochloride at 150 mg/kg dose): comparable
- activity profile in lung infection ([5]; Vancomycin 110 mg/kg, two doses at 24 and 48 hours post infection): bactericidal profile
